The text below walks through data of patent USRE39264E1, “Pharmaceutical combination” (Medivir AB, priority 1996, dated 2006).

Structures are written as SMILES.

For series [1], the system named is Human HSV-1 (strain C42 or SC16). The series can be described thus: Experiment 3: combination creams of an antiviral and an anti-inflammatory substance in the animal model for recurrent herpes infection. In kind it is in vivo, Balb/C mice. The conditions noted are these: for ear thickness (% of placebo) / Lesion score (% of placebo): placebo set to 100%.
Experimental: Human HSV-1 (2×10^5 plaque forming units, pfu, strain C42 or SC16) is inoculated into the neck of groups of 10-18 female in-bred Balb/C mice (16-18 g) as described by Kristofferson et al. (“Limited efficacy of inhibitors of herpes simplex virus DNA synthesis in murine models of recrudescent disease”, J. Gen. Virol. 1988; 69:1157-66). The development of zosteriform spread infection is then recorded by daily inspection of the occurrence of lesions on the pinna and swelling of the ear.
The same animal model with ten animals in each group was used.
The test system of series [2] is recurrent HSV infections. The conditions noted are these: oral formulation, used after the appearance of symptoms; cited from earlier work.
The test system of series [3] is Human HSV-1 (strain C42 or SC16). Kind of series: Experiment 1: combination creams of foscarnet and an antiinflammatory substance in the animal model for recurrent herpes infection. It is filed as in vivo, Balb/C mice. To be noted: for Compounded value ± s.d., Ear thickness / Compounded value ± s.d., Lesion score: cream day 4-7 after infection three times daily, mean cumulative over days 4-12, 15 and 21, ATI day 2; for Compounded value ± s.d., Lesion score: score scale 0-4; for Ear thickness (% of placebo): cumulative ear thickness; for Ear thickness (% of placebo) / Lesion score (% of placebo): placebo set to 100%; for Lesion score (% of placebo): cumulative lesion score. Here is the method:
This transport will take approximately 3-4 days. […] Budesonide and lidocaine were selected for testing as examples of antiinflammatory compounds. The foscarnet cream Foscarnet Cream was prepared as described in Example 1. The cream base without drug was used as placebo. The cream base described above was also mixed with budesonide cream (0.025%, […]-Brocades, The Netherlands) to obtain suitable concentrations for treatment. […] Foscarnet, the two antiinflammatory substances, as well as the two combination creams were tested in the animal model described, with ten animals in each group. The respective cream was applied day 4-7 after infection three times daily.

The test system is the same in series [4]. Kind of series: Experiment 2: sequential test of foscarnet cream and an antiinflammatory cream in the animal model for recurrent herpes infection. An excerpt: In the novel animal model, virus is inoculated in the neck of a mouse. The virus will then be transported through the nerves to the skin of the corresponding ear. This transport will take approximately 3-4 days. On day 2 the animals are given immune cells with reactivity against the infecting virus. Subsequently, when the virus arrives at the ear, the animal instantly mobilises an effective immune response against the virus, thus mimicking the clinical situation of a recurrent herpes infection.
The development of zosteriform spread infection is then recorded by daily inspection of the occurrence of lesions on the pinna and swelling of the ear.
The lesions are scored on a scale from 0 to 4 as follows: • 0: no lesions on the ear • 1: isolated zosteriform lesions on the ear • 2: mild ulceration of zosteriform lesions on the ear • 3: moderate ulceration of zosteriform lesions on the ear • 4: severe ulceration of zosteriform lesions on the ear
Swelling of the ear was assessed by measuring the thickness of the ears using an engineers micrometer, as described by Kristofferson et al. The titre of infectious virus in the ear was measured as described by Kristofferson et al, except that BHK (baby hamster kidney) cells were used in addition.
On day 2 after infection the animals are given adoptive transfer of immunity, ATI, against HSV-1 by intravenous injection of 2×10^7 lymph node cells into the tail. Said lymph node cells had been prepared by injecting HSV-1 (10^5 pfu, strain C42 or strain SC16) into the pinna of both ears of anaesthetisized female Balb/C mice (16-18 g). Seven days post infection the animals are sacrificed by cervical dislocation, the draining lymph nodes are removed, and a suspension of lymph node cells in phosphate buffered saline is prepared by means of a micro mesh.
On day 4 after the infection and for 4 days, a composition to be tested as to activity against recurrent herpes is distributed equally in an amount of approximately 25 mg of cream on each side of the ear, every 8 h.
In this experiment the animals were treated with two different formulations 2 hours apart. First the foscarnet cream was applied and 2 hours later the antiinflammatory formulation. This was repeated three times daily during the treatment period (day 4-7 after infection).
The following substances were tested: foscarnet (3%, Foscarnet Cream), budesonide (0.025%, Preferid®, Gist-Brocades, The Netherlands), hydrocortisone (1%, Hydrokortison kräm 1% ACO, Kabi Pharmacia AB, Sweden), lidocaine (5%, Xylocaine®, Astra AB) and ketoprofen (2.5%, Oruvail®, Rhone-Poulenc Rorer NS, Denmark)

Where [5] appears, read: systemic treatment, 50 mg/kg injected intra-peritoneally three times daily.
Setting [6] is: topical cream three times daily days 4-7 after infection, ATI day 2.

As to `Nc1nc2c(ncn2COCCO)c(=O)[nH]1` [Acyclovir], the “ear thickness (% of placebo)” value in series [1] (systemic treatment, 50 mg/kg i.p. three times daily) is 88 % of placebo. Besides, in series [1] (setting [5]), the “Mean cumulative value ± s.d., ear thickness” value was found to be 3.0 ± 0.4 mm and the “Mean cumulative value ± s.d., lesion score” value was 7.0 ± 1.6. In addition, in series [1] (setting [6]), the “Mean cumulative value ± s.d., ear thickness” value was 3.3 ± 0.3 mm and the “Mean cumulative value ± s.d., lesion score” value was 8.0 ± 1.3. Also, in series [1] (topical cream), the “Lesion score (% of placebo)” value is reported as 118 % of placebo and the “ear thickness (% of placebo)” value is reported as 100 % of placebo. Besides, the “Shortening of healing time” value in series [2] was “no more than approximately one day”.
For `CCCC1O[C@@H]2C[C@H]3[C@@H]4CCC5=CC(=O)C=C[C@]5(C)[C@H]4[C@@H](O)C[C@]3(C)[C@]2(C(=O)CO)O1` (stereo partly drawn) [Budesonide], in series [3], the “Compounded value ± s.d., Ear thickness” value is given as 2.1 ± 0.4 mm; the “Compounded value ± s.d., Lesion score” value is recorded as 8.8 ± 1.8; the “Ear thickness (% of placebo)” value is recorded as 58 % of placebo; the “Lesion score (% of placebo)” value is reported as 96 % of placebo.
As to `O=C(O)P(=O)(O)O` [Foscarnet, Trisodium phosphonoformate hexahydrate], the “Virus titre in the ear ± s.d. on d 7” value in series [4] (ATI +, day 7 after infection) was 3.25 ± 0.49 log10pfu/ml. Further, the “Ear thickness (% of placebo)” value in series [4] (cumulative ear thickness, placebo set to 100%) is 88 % of placebo. Besides, the “Lesion score (% of placebo)” value in series [4] (cumulative lesion score, placebo set to 100%) is given as 84 % of placebo. Moreover, in series [4] (day 7 after infection), the “Reduction of virus titre compared to placebo-treated animals” value was “about tenfold”. Moreover, the “Mean cumulative value ± s.d., lesion score” value in series [4] (foscarnet cream, 2 hours later antiinflammatory cream, three times daily day 4-7 after infection, ATI day 2) is 4.8 ± 2.0. For the same compound, the “Mean cumulative value ± s.d., Ear thickness” value in series [4] (foscarnet cream, 2 hours later antiinflammatory cream, three times daily day 4-7 after infection, measured as in Experiment 1) was 2.8 ± 0.3. In series [4] (in comparison to placebo), the “Effect on ear thickness” value is “small reduction” and the “Effect on lesion score” value was “small reduction”. In series [1] (setting [6]), the “Mean cumulative value ± s.d., ear thickness” value is on record as 3.3 ± 0.2 mm and the “Mean cumulative value ± s.d., lesion score” value amounted to 7.3 ± 1.2. Also, in series [1] (topical cream), the “Lesion score (% of placebo)” value is listed as 107 % of placebo and the “ear thickness (% of placebo)” value was 98 % of placebo. Further, in series [3], the “Compounded value ± s.d., Ear thickness” value was determined as 3.0 ± 0.4 mm; the “Compounded value ± s.d., Lesion score” value was found to be 7.5 ± 2.5; the “Ear thickness (% of placebo)” value is 82 % of placebo; the “Lesion score (% of placebo)” value was 82 % of placebo.
In the case of `C[C@]12CCC(=O)C=C1CC[C@@H]1[C@@H]2[C@@H](O)C[C@@]2(C)[C@H]1CC[C@]2(O)C(=O)CO` [Hydrocortisone], in series [1] (setting [6]), the “Mean cumulative value ± s.d., ear thickness” value was found to be 2.0 ± 0.2 mm and the “Mean cumulative value ± s.d., lesion score” value stood at 6.0 ± 1.3. For the same compound, in series [1] (topical cream), the “Lesion score (% of placebo)” value is 88 % of placebo and the “ear thickness (% of placebo)” value is 61 % of placebo.
Consider `CCN(CC)CC(=O)Nc1c(C)cccc1C` [Lidocaine], for which the “Effect on ear thickness / inflammation” value in series [3] (compared to placebo or single creams) was “no effect”. Further, in series [3], the “Compounded value ± s.d., Ear thickness” value is on record as 3.6 ± 0.3 mm; the “Compounded value ± s.d., Lesion score” value was determined as 9 ± 2; the “Ear thickness (% of placebo)” value is on record as 100 % of placebo; the “Lesion score (% of placebo)” value is 98 % of placebo.
For `O=C(O)Cc1ccccc1Nc1c(Cl)cccc1Cl` [diclofenac], in series [4] (topical gel, probably systemic absorption in too high amounts), the “Side-effects of topical NSAID” value is on record as “toxic side-effects”.
`COc1ccc2c(c1)c(CC(=O)O)c(C)n2C(=O)c1ccc(Cl)cc1` [indomethacin]: the “Side-effects of topical NSAID” value in series [4] (mouse, in vivo) is on record as “toxic side-effects”.
